In US12404269B2, “Aminoquinazolinone and aminoisoquinolinone derivatives and application thereof” (ZHEJIANG UNIVERSITY, priority 2018, dated 2025):
pIC50: −log10 of the molar value. Where two headings read alike, the source gives them in different places.

Experiments:
[1] = tested on: KPL4 (PIK3CA mut); experiment: Tumor cell proliferation, CCK8 method, KPL4; assay type: cell-based
Protocol: (§1) The IC50 value was calculated using Graphpad Prism V5.0 software.

[2] = tested on: ZR-75-1 (PTEN loss); experiment: Tumor cell proliferation, CCK8 method, ZR-75-1; assay type: cell-based; details: Homo sapiens; CCK8, ZR-75-1
Protocol: as §1

[3] = tested on: MCF7 (PIK3CA mut); experiment: Tumor cell proliferation, CCK8 method, MCF7; assay type: cell-based, human; details: Homo sapiens
Protocol: as §1

[4] = target: T1, PI3Kδ (Homo sapiens, UniProt O00329); experiment: PI3Kδ molecular activity test (ADP-GLO); assay type: biochemical; details: recombinant protein
T1 construct: purchased Carna Bioscience
T1 sequence (O00329 whole entry): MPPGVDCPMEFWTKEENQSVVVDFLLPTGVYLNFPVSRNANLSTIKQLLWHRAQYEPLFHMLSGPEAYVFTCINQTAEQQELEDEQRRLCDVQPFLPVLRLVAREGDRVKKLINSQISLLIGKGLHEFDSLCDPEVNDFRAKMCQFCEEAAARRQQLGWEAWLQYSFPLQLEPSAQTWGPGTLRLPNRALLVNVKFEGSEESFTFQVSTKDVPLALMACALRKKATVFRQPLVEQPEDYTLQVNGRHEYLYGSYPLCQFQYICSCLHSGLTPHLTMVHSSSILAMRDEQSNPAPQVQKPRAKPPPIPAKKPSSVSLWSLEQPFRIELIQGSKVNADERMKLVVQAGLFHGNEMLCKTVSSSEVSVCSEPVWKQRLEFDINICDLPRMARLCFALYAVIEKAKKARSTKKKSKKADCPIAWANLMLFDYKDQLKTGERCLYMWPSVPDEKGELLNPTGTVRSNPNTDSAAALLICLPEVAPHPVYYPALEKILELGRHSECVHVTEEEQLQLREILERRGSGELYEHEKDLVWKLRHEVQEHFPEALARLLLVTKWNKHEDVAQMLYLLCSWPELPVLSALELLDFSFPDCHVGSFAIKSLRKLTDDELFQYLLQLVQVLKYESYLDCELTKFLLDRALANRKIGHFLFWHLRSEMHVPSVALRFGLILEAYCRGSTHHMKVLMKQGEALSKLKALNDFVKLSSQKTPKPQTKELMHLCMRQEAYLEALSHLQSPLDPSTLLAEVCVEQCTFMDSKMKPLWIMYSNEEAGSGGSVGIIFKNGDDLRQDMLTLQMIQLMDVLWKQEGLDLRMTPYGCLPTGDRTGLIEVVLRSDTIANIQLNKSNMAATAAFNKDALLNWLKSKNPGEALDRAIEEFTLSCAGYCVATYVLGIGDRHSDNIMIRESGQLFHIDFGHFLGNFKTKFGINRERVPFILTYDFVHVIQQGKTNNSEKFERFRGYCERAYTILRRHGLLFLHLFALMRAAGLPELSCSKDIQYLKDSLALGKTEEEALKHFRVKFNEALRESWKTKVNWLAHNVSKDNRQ
T1 sequence (P27986 whole entry partner): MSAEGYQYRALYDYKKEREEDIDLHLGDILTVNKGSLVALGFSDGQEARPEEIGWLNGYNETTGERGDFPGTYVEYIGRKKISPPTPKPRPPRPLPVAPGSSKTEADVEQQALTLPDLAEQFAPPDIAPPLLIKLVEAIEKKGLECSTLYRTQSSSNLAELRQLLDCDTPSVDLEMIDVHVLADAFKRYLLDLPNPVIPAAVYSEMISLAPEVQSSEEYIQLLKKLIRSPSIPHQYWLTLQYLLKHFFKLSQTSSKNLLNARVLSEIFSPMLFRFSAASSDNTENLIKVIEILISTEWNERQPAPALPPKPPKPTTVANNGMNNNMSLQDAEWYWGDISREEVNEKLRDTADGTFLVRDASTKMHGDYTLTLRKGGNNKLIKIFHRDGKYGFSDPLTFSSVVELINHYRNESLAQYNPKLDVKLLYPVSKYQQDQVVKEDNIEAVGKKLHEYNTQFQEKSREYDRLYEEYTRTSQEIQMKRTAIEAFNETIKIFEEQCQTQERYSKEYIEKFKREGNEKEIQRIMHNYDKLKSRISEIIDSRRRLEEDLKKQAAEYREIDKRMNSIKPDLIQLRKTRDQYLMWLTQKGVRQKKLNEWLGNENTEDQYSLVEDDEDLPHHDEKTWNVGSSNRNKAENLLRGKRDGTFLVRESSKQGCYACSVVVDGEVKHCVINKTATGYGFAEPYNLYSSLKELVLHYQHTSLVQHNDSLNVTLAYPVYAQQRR
Protocol: (§2) Instrument: ELISA Reader Envision™ (PerkinElmer, USA)
(§3) Materials: Human recombinant PI3K and PI3Kδ proteins, purchased from Carna Bioscience; ADP-GLO kit, purchased from Promega.
(§4) Take the PI3Kα Molecular Activity Test as an Example to Describe the Text Method of the PI3K Subtypes
(§5) PI3K-α recombinant protein and substrate ATP were diluted with kinase reaction buffer (50 mM Tris-HCl, pH 7.4, 2.1 mM DTT, 0.05% Tween-20, 10 mM MgCl2). […] The specific reaction system was 2% of DMSO, 0.8 ng/μL PI3K-α, and 100 μM ATP, the positive compound control groups and control wells were set, and there were 3 multiple-wells for each concentration of each sample. After incubating for 2 hours at room temperature, ADP-GLO Reagent and Kinase Detection Reagent were added respectively, and then Envision™ was used to detect the […] readings. The activity rate of the samples were calculated by the sample readings, and the calculation formula was: activity rate=(ODcompound−ODcontrol)/(ODDMSO−ODcontro) ×100%.

[5] = tested on: SW48 (PIK3CA mut); experiment: Tumor cell proliferation, CCK8 method, SW48; assay type: cell-based; details: Homo sapiens
Protocol: as §1

[6] = Pharmacokinetic determination in SD rats, tail vein injection; assay type: in vivo; details: rat, plasma; male SD rats, intravenous, 1 mg/kg
Protocol: Healthy SD rats weighing 200±20 g, male, were randomly divided into groups with 6 rats in each group, and were administered by tail vein injection at a dose of 1 mg/kg. The blood sampling time points for pharmacokinetic analysis: 5 min, 15 min, 30 min, 2 h, 4 h, 6 h, 8 h, 24 h, and 48 h after administration. About 0.3 mL of whole blood was collected via the orbit and placed in a heparinized test tube, centrifugalized at 6000 rpm for 10 min to separate the plasma, and store at −80° C. for testing. The plasma concentrations of the each compounds were detected with an Agilent liquid mass spectrometry (LC-MS/MS, Agilent Jet Stream Electrometric spray ion), and the relevant pharmacokinetic parameters were calculated using the WinNonLin 7.0 pharmacokinetic software non-compartment model method.

[7] = target: T2, PI3Kα (Homo sapiens, UniProt P42336); experiment: PI3Kα molecular activity test (ADP-GLO); assay type: biochemical; details: for Selectivity (PI3Kδ IC50/PI3KαIC50): PI3Kδ IC50/PI3Kα IC50; for pIC50: recombinant protein, 100 μM ATP, 2 hours at room temperature
T2 construct: purchased Carna Bioscience
T2 sequence (P42336 whole entry): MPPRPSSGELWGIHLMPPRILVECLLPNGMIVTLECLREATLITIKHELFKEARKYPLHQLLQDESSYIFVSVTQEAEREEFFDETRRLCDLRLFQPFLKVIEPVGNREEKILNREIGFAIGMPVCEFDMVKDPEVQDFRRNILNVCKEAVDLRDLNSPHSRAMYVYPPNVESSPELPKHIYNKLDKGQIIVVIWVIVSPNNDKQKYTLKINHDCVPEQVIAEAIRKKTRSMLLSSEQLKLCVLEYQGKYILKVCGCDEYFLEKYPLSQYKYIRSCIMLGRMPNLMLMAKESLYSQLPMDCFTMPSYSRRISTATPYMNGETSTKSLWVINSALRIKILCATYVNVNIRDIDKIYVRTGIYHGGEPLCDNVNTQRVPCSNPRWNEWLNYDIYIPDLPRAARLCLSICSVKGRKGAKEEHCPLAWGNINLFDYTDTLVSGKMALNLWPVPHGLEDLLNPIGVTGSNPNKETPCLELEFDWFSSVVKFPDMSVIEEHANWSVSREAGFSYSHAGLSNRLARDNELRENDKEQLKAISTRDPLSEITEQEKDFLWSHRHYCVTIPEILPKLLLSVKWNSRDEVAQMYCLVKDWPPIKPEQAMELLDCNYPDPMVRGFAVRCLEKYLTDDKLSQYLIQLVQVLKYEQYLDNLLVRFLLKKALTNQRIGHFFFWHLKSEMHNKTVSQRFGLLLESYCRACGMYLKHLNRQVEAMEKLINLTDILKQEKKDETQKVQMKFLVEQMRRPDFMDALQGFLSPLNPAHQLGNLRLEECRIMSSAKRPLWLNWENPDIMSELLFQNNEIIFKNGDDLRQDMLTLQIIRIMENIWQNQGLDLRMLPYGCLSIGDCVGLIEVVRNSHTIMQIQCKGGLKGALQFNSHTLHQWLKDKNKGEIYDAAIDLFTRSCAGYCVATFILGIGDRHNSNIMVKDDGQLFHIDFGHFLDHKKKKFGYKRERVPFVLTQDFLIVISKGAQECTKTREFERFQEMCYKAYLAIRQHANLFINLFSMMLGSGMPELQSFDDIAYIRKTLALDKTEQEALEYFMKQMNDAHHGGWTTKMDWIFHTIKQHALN
T2 sequence (P27986 whole entry partner): as the sequence (P27986 whole entry partner) above
Protocol: as §2, §3, §4, §5

[8] = tested on: Kasumi-1 cell line; experiment: In vivo efficacy, Kasumi-1 subcutaneous transplanted tumor in nude mice; details: 10 mg/Kg qd for 21 days, Kasumi-1 tumor, female nude mice, FIG. 1
Protocol: Female nude mice, weighing 20±3 g, were inoculated subcutaneously with Kasumi-1 cell line in their right axilla. The cell inoculation accounted for 1×10^7/mouse. After tumor formation, the diameter of the transplanted tumor was measured with a vernier caliper. When the tumor grown to 100-300 mm^3, the animals were divided into a model control group and administration groups with 6 […] in each group depending on body weight and tumor volume. The model control group was given the same amount of blank solvent. After grouping, the drugs were administered daily (qd) with a doge of 10 mg/Kg for 21 consecutive days. During the experiment, the diameter of the transplanted tumor and the weight of the mice were measured twice a week. The calculation formula of the tumor volume (TV) was: TV=½×a×b^2, where a and b represented length and width respectively. The relative tumor volume (RTV) was calculated from the measurement results, the calculation formula was: RTV=Vt/V0, where V0 was the tumor volume measured as grouping and administering (i.e. d0), and Vt was the tumor volume at each measurement. The evaluation index of anti-tumor activity was the relative tumor proliferation rate T/C(%), and the calculation formula was as follows: T/C(%)=(TRTV/CRTV)×100%, where TRTV: RTV of the treatment group; and CRTV: RTV of the negative control group.

[9] = background; cited from earlier work
[10] = CLL patients, background; cited from earlier work
[11] = CCK8, KPL4, read-out: KPL4 (PIK3CA mut) proliferation IC50
[12] = CCK8, MCF7, read-out: MCF7 (PIK3CA mut) proliferation IC50
[13] = CCK8, SW48, read-out: SW48 (PIK3CA mut) proliferation IC50

Structure (SMILES)	pIC50 [1, 11]	pIC50 [2]	pIC50 [3, 12]	pIC50 [4]	pIC50 [5, 13]	Vd [6] [L/kg]	clearance [6] [mL/min/kg]	half-life [6] [h]	Selectivity (PI3Kδ IC50/PI3KαIC50) [7]	pIC50 [7]	tumor growth inhibitory activity [8]	pIC50 ([1]; KPL4, read-out: KPL4 (PIK3CA mut) proliferation IC50)	pIC50 ([3]; MCF7, read-out: MCF7 (PIK3CA mut) proliferation IC50)	volume of distribution [9] [L/kg]	pIC50 ([5]; SW48, read-out: SW48 (PIK3CA mut) proliferation IC50)	liver side effect [10]
COc1c(OCCCN2CCOCC2)ccc2c(=O)n(C)c(NC(=O)c3cnc(N)nc3)nc12 [8a-1]	> 7.70	> 7.70	> 7.70	> 7.70	> 7.70	4.2	33.3	5.3	II (“II” represents 5-10 times)	> 7.70						
COc1c(OCC(N)=O)ccc2c(=O)n(C)c(NC(=O)c3cnc(N)nc3)nc12 [8a-2]	> 7.70	> 7.70	> 7.70	> 7.70	> 7.70	3.2	30	4.9	III (“III” represents >10 times)	> 7.70						
COc1c(OC[C@@H](O)CN2CCOCC2)ccc2c(=O)n(C)c(NC(=O)c3cnc(N)nc3)nc12 [8a-27, (S)-2-amino-N-(7-(2-hydroxy-3-morpholinopropoxy)-8-methoxy-3-methyl-4-oxo-3,4-dihydroquinazolin-2-yl) pyrimidine-5-carboxamide]	6.70 to 7.70	6.00 to 6.70	> 7.70	6.70 to 7.70	6.70 to 7.70				II (“II” represents 5-10 times)	> 7.70	strong tumor growth inhibitory activity					
COc1c(OC[C@H](O)CN2CCOCC2)ccc2c(=O)n(C)c(NC(=O)c3cnc(N)nc3)nc12 [8a-28, (R)-2-amino-N-(7-(2-hydroxy-3-morpholinopropoxy)-8-methoxy-3-methyl-4-oxo-3,4-dihydroquinazolin-2-yl) pyrimidine-5-carboxamide]	6.70 to 7.70	6.00 to 6.70	> 7.70	6.70 to 7.70	6.70 to 7.70				II (“II” represents 5-10 times)	> 7.70	strong tumor growth inhibitory activity					
COc1c(OCCC(N)=O)ccc2c(=O)n(C)c(NC(=O)c3cnc(N)nc3)cc12 [8a′-3]				6.70 to 7.70		2.9	41.7	6.7	III (“III” represents >10 times)	> 7.70						
CCn1c(NC(=O)c2cnc(N)nc2)nc2c(OC)c(OCCCN3CCOCC3)ccc2c1=O [8b-1]	> 7.70	> 7.70	> 7.70		> 7.70	3.8	31.7	5.2								
CCn1c(NC(=O)c2cnc(N)nc2)nc2c(OC)c(OCCCC(N)=O)ccc2c1=O [8b-9]				6.70 to 7.70		3.9	26.7	4.2	III (“III” represents >10 times)	> 7.70						
COc1c(OCCCN2CCOCC2)ccc2c1N=C(NC(=O)c1cnc(N)nc1)N1CCN=C21 [Copanlisib, reference compound]		> 7.70				33.5	36.7	8.9				> 7.70	> 7.70	32.6	> 7.70	
CC[C@H](Nc1ncnc2[nH]cnc12)c1nc2cccc(F)c2c(=O)n1-c1ccccc1 [Idelalisib]																elevated transaminase
